Measured values: US20140242093A1, “METHODS AND COMPOSITIONS FOR MODULATING THE INNATE IMMUNE RESPONSE AND/OR MYOGENESIS IN A MAMMALIAN SUBJECT” (FRED HUTCHINSON CANCER RESEARCH CENTER, priority 2011, published 2014)

Test system: control human primary myoblasts
Experiment: Expression microarray of primary myoblasts transduced with lentivirus carrying DUX4-fl, DUX4-s or GFP
Method: Primary human myoblasts were collected and cultured as previously described (Snider et al., 2010). Primary myoblasts were maintained at or below 70% confluency for proliferation. For differentiation, cells were allowed to reach 95-100% confluency in growth medium. Once confluency was reached, the cells were changed to differentiation medium (F10 media supplemented with 1% horse serum, 10 μg/mL insulin, and 10 μg/mL transferrin, penicillin/streptomycin) and maintained for 4 days. Human RD cells were grown in DMEM in 10% bovine calf serum (Hyclone) and penicillin/streptomycin. The primary myoblasts were transduced with lentivirus carrying DUX-fl, DUX4- or GFP (MOI=15).
Expression microarrays were performed on the transduced cells at 24 hours after transduction as follows. […] Samples were analyzed by Illumina Human Whole Genome microarrays. Probe intensities were corrected, normalized, and summarized by the Lumi package of Bioconductor (Du et al., 2008). Differentially expressed genes were identified by the LIMMA package of Bioconductor (Wettenhall and Smyth, 2004). Gene set enrichment analysis (GSEA) was performed using the Bioconductor GOstats package (Falcon and Gentleman, 2007).

[1] = 3-fold criteria (>1.584 log2-fold change and FDR<0.01)

## DUX4-fl: full-length DUX4 protein (SEQ ID NO:110), expressed from lentiviral or pCS2 vectors or in vitro translated
  number of genes with increased expression: 1071 genes
2-fold change and FDR<0.01 vs lenti-GFP, 24 hours after transduction
  number of genes with decreased expression: 837 genes
[1]
  number of genes decreased: 244 genes
  number of genes increased: 466 genes
Refseq BQ437417, cultured human skeletal muscle
  BQ437417 (no symbol given) expression fc: −2.514
Refseq NM_000020.1
  fc of ACVRL1 (expression array): −1.01
Refseq NM_000064.1
  fc of C3 (expression array): −1
Refseq NM_000067.1
  CA2 expression fc: 6.091
Refseq NM_000088.3
  fc of COL1A1 (expression array): −0.2992
Refseq NM_000099.2
  CST3 fc: −1.131
Refseq NM_000118.1
  ENG fc: −1.105
Refseq NM_000156.4
  fc of GAMT (expression array): −1.021
Refseq NM_000158.2
  GBE1 fc: −1.129
Refseq NM_000202.3
  fc of IDS (expression array): −1.025
Refseq NM_000217.2
  KCNA1 expression fc: 1.832
Refseq NM_000231.1
  SGCG expression fc: 1.863
Refseq NM_000270.1
  NP expression fc: 6.961
Refseq NM_000314.4
  fc of PTEN (expression array): −1.031
Refseq NM_000341.2
  SLC3A1 expression fc: 2.736
Refseq NM_000346.2
  SOX9 expression fc: 3.099
Refseq NM_000430.2
  fc of PAFAH1B1 (expression array): −0.3583
Refseq NM_000517.3
  HBA2 expression fc: 4.721
Refseq NM_000518.4
  fc of HBB (expression array): −0.354
Refseq NM_000558.3
  HBA1 expression fc: 4.787
Refseq NM_000584.2, cultured human skeletal muscle
  IL8 expression fc: −3.885
Refseq NM_000585.2
  fc of IL15 (expression array): −1.013
Refseq NM_000593.5, cultured human skeletal muscle
  TAP1 expression fc: −3.265
Refseq NM_000600.1
  fc of IL6 (expression array): −0.8024
Refseq NM_000628.3
  IL10RB fc: −1.108
Refseq NM_000690.2
  fc of ALDH2 (expression array): −1.011
Refseq NM_000700.1
  fc of ANXA1 (expression array): −1.001
Refseq NM_000775.2
  fc of CYP2J2 (expression array): −0.06948
Refseq NM_000820.1
  fc of GAS6 (expression array): −1.026
Refseq NM_000902.3
  fc of MME (expression array): −1.046
Refseq NM_000918.3
  P4HB fc: −1.109
Refseq NM_000959.3
  PTGFR fc: −1.089
Refseq NM_001067.2
  TOP2A fc: −1.157
Refseq NM_001071.1
  TYMS fc: −1.125
Refseq NM_001078.2, cultured human skeletal muscle
  VCAM1 expression fc: −3.014
Refseq NM_001141.2
  ALOX15B fc: −1.071
Refseq NM_001150.1, cultured human skeletal muscle
  ANPEP expression fc: −2.118
Refseq NM_001179.3
  ART3 expression fc: 4.363
Refseq NM_001218.3, cultured human skeletal muscle
  CA12 expression fc: −2.629
Refseq NM_001225.3
  fc of CASP4 (expression array): −1.059
Refseq NM_001251.1
  CD68 fc: −1.091
Refseq NM_001288.4
  CLIC1 fc: −1.083
Refseq NM_001338.3
  CXADR expression fc: 2.494
Refseq NM_001386.4
  DPYSL2 fc: −1.1
Refseq NM_001425.1
  EMP3 fc: −1.139
Refseq NM_001459.2
  FLT3LG fc: −1.065
Refseq NM_001511.1, cultured human skeletal muscle
  CXCL1 expression fc: −3.523
Refseq NM_001523.1
  fc of HAS1 (expression array): −1.063
Refseq NM_001535.2
  PRMT2 fc: −1.119
Refseq NM_001543.3
  NDST1 fc: −1.069
Refseq NM_001547.4, cultured human skeletal muscle
  IFIT2 expression fc: −4.315
Refseq NM_001548.3, cultured human skeletal muscle
  IFIT1 expression fc: −4.379
Refseq NM_001549.2, cultured human skeletal muscle
  IFIT3 expression fc: −3.857
Refseq NM_001550.2
  IFRD1 expression fc: 2.99
Refseq NM_001552.2, cultured human skeletal muscle
  IGFBP4 expression fc: −1.937
Refseq NM_001565.2
  fc of CXCL10 (expression array): −0.8766
Refseq NM_001605.2
  AARS fc: −1.067
Refseq NM_001610.1
  ACP2 fc: −1.126
Refseq NM_001656.3
  TRIM23 expression fc: 2.235
Refseq NM_001669.2
  ARSD fc: −1.079
Refseq NM_001698.1
  fc of AUH (expression array): −1.06
Refseq NM_001710.4, cultured human skeletal muscle
  CFB expression fc: −5.623
Refseq NM_001733.4, cultured human skeletal muscle
  C1R expression fc: −2.829
Refseq NM_001753.3
  CAV1 fc: −1.097
Refseq NM_001754.3
  fc of RUNX1 (expression array): −0.2108
Refseq NM_001759.2
  fc of CCND2 (expression array): −1.057
Refseq NM_001769.2
  CD9 expression fc: 1.992
Refseq NM_001797.2
  CDH11 fc: −1.174
Refseq NM_001945.1
  HBEGF expression fc: 3.868
Refseq NM_001953.2, cultured human skeletal muscle
  ECGF1 expression fc: −4.299
Refseq NM_001964.2
  EGR1 expression fc: 3.749
Refseq NM_001987.4
  ETV6 fc: −1.1
Refseq NM_001990.2
  EYA3 expression fc: 2.572
Refseq NM_001995.2
  fc of ACSL1 (expression array): −1.015
Refseq NM_002005.2
  FES fc: −1.108
Refseq NM_002032.2, cultured human skeletal muscle
  FTH1 expression fc: −2.029
